Test results as given in paper PMC11428593 (Antibiotics, 2024).
Converted amounts (≈) assume the structure as drawn.

How the values were obtained:
[1] = tested on: MRSA USA300LAC; test: MIC by broth microdilution (CLSI); format: cell-based, Staphylococcus aureus; conditions: for MIC: Staphylococcus aureus, MRSA USA300LAC, MHB, 37 °C, 16 h, read-out: MIC
Method: The MIC values of the alkyl pyridinol derivatives against the S. aureus strain ATCC 25923, MRSA strains ATCC 33591, ATCC BAA-44, and USA300LAC, as well as the P. aeruginosa strain ATCC 27853, were determined by following the CLSI guidelines for the broth microdilution antibiotic sensitivity testing protocol. In brief, the overnight cultures were diluted into Mueller Hinton Broth (MHB) to a final inoculum concentration of 5 × 10^5 CFU/mL (O.D600nm = 0.00001) and dispensed into a 96-well polystyrene plate (Alkali Scientific, Fort Lauderdale, FL, USA). Alkyl pyridine compounds were diluted into inoculated MHB to the indicated concentrations from stock solutions that would allow for DMSO concentrations below 5%, resulting in a total volume of 200 μL per well. The plates were subsequently incubated at 37 °C for 16 h at 300 rpm. The MIC values, which are defined as the lowest compound concentration that inhibited growth, were determined from three biological replicates.

[2] = tested on: S. aureus strain USA300LAC; test: Checkerboard assay with JC-01-074 (FIC index); format: cell-based, Staphylococcus aureus; conditions: MHB, 37 °C, 20 h, antibiotic combined with JC-01-074
Method: Therefore, we tested whether the membrane-disrupting effects of JC-01-074 could increase the sensitivity of the S. aureus strain USA300LAC to antibiotics of different classes; for instance, by facilitating their uptake into the cytoplasm. […] Antibiotic concentrations were prepared by the microbroth dilution in MHB based on their MIC values (Table 1) to obtain the final concentrations as outlined in the 96-well plate scheme for each antibiotic tested (Supplementary Figure S3). Overnight USA300LAC cultures were diluted to 5 × 10^5 CFU/mL in MHB, and the growth was recorded at 37 °C and 200 rpm for 20 h in the presence and absence of the indicated antibiotic.
FICs were calculated as the ratio of the MIC of the antimicrobial in combination with the MIC of the antimicrobial alone. Interactions were categorized as synergistic (<0.5), additive or no interaction (0.5–2), and antagonistic (>2). FICs were calculated from three biological replicates.
Following previous studies, the checkerboard assay was employed to determine whether JC-01-074 had synergistic effects in combination with members of different antibiotic classes. The indicated antibiotics tested in combination were first serially diluted two-fold in MHB on a longitudinal axis in a 96-well polystyrene plate. JC-01-074 was then serially diluted two-fold across the 96-well plate horizontal axis. The plates were inoculated with USA300LAC to a final inoculum concentration of 5 x10^5 CFU/mL (O.D.600nm = 0.0001) and incubated overnight at 37 °C for 20 h. The growth was measured at 600 nm in a Tecan 200 Infinite Pro microplate reader. The fractional inhibitory concentration was calculated as follows:FIC = MICJC-01-074 + antibiotics/[…]
The classification of interactions was based on the FIC index: interactions were categorized as synergistic (FIC ≤ 0.5), additive/no interaction (FIC 0.5–2.0), and antagonistic (FIC > 2.0).

| Structure (SMILES) | MIC [1] [µg/mL] | interaction with JC-01-074 (sum of FIC values) [2] | MIC (1× MIC as used for microscopy) ([1]; USA300LAC, stated in figure legend) [µg/mL] |
| --- | --- | --- | --- |
| C[C@H]1c2cccc(O)c2C(=O)C2=C(O)[C@]3(O)C(=O)C(C(N)=O)=C(O)[C@@H](N(C)C)[C@@H]3[C@@H](O)[C@@H]21 [Doxycycline] | 0.125 (≈ 0.281 µM) | antagonistic (antagonistic (FIC > 2.0)) | – |
| O=C(N[C@H](CO)[C@H](O)c1ccc([N+](=O)[O-])cc1)C(Cl)Cl [Chloramphenicol] | 4 (≈ 12.4 µM) | – | – |
| CC1(C)S[C@@H]2[C@H](NC(=O)[C@H](N)c3ccccc3)C(=O)N2[C@H]1C(=O)O [Ampicillin] | 2.33 (≈ 6.67 µM) | additive (additive/no interaction (FIC 0.5–2.0)) | – |
| CCCCCCCCCC(=O)N[C@@H](Cc1c[nH]c2ccccc12)C(=O)N[C@H](CC(N)=O)C(=O)N[C@@H](CC(=O)O)C(=O)N[C@@H]1C(=O)NCC(=O)N[C@@H](CCCN)C(=O)N[C@@H](CC(=O)O)C(=O)N[C@H](C)C(=O)N[C@@H](CC(=O)O)C(=O)NCC(=O)N[C@H](CO)C(=O)N[C@@H]([C@H](C)CC(=O)O)C(=O)N[C@@H](CC(=O)c2ccccc2N)C(=O)O[C@@H]1C [daptomycin] | – | – | 4 |
| CNC(C)C1CCC(N)C(OC2C(N)CC(N)C(OC3OCC(C)(O)C(NC)C3O)C2O)O1 (stereo not drawn) [Gentamycin] | 1 (≈ 2.09 µM) | additive (additive/no interaction (FIC 0.5–2.0)) | – |
| O=C(O)c1cn(C2CC2)c2cc(N3CCNCC3)c(F)cc2c1=O [Ciprofloxacin] | – | antagonistic (antagonistic (FIC > 2.0)) | – |
